According to patent publication US20080254445A1, “Prognosis in Cancer Patients Vaccinated with a Cancer Antigen Peptide-Associated Agent” (priority 2003, published 2008):

Legend:
[1] = tested on: peptide-specific CTL precursors in PBMCs; assay: Peptide-specific CTL precursors in pre- and post (6th)-vaccination PBMCs by IFN-γ-release assay; type: cell-based, human; conditions: post (6th)-vaccination PBMC; positive cases/No. of tested cases (% positive)
peptide-reactive IgG = assay: ELISA of peptide-reactive serum IgG in pre- and post-vaccination sera; type: in vivo, human; conditions: post (3rd and 6th)-vaccination sera vs pre-vaccination; positive cases/No. of tested cases (% positive)
[2] = Delayed type hypersensitivity (DTH) skin test; type: in vivo, human; conditions: skin test site, first to 6th vaccination; positive cases/No. of tested cases (% positive)

## AFLRHAAL [ART4 13]
[1]
  Increased immune reactions to peptide: CTL activity: 0/1
peptide-reactive IgG
  Increased immune reactions to peptide: IgG antibody: 0/2
[2]
  Increased immune reactions to peptide: DTH response: 0/4

## ALVEFEDVL [HNRPL140]
[1]
  Increased immune reactions to peptide: CTL activity: 0/5
peptide-reactive IgG
  Increased immune reactions to peptide: IgG antibody: 0/5
[2]
  Increased immune reactions to peptide: DTH response: 0/5

## ASLDSDPWV [WHSC103]
[1]
  Increased immune reactions to peptide: CTL activity: 0/6

## DFMIQGGDF [CypB91]
[1]
  Increased immune reactions to peptide: CTL activity: 0/17

## DVWSFGILL [Ick422]
peptide-reactive IgG
  Increased immune reactions to peptide: IgG antibody: 0/10

## DYPSLSATDI [ART4 75]
peptide-reactive IgG
  Increased immune reactions to peptide: IgG antibody: 0/15

## DYSARWNEI [SART2 93]
[2]
  Increased immune reactions to peptide: DTH response: 0/19

## EYCLKFTKL [ART1 170]
[1]
  Increased immune reactions to peptide: CTL activity: 0/7
[2]
  Increased immune reactions to peptide: DTH response: 0/9

## ILGELREKV [WHSC141]
[2]
  Increased immune reactions to peptide: DTH response: 0/8

## ILPRKHHRI [UBE208]
[1]
  Increased immune reactions to peptide: CTL activity: 0/1
[2]
  Increased immune reactions to peptide: DTH response: 0/1

## KFHRVIKDF [CypB84]
[1]
  Increased immune reactions to peptide: CTL activity: 0/3
[2]
  Increased immune reactions to peptide: DTH response: 0/4

## KLKHYGPGWV [CypB129]
[1]
  Increased immune reactions to peptide: CTL activity: 0/6

## KLVERLGAA [Ick246]
[2]
  Increased immune reactions to peptide: DTH response: 0/7

## LIADFLSGL [UBE85]
[2]
  Increased immune reactions to peptide: DTH response: 0/2

## LLQAEAPRL [SART3 302]
[1]
  Increased immune reactions to peptide: CTL activity: 0/4
peptide-reactive IgG
  Increased immune reactions to peptide: IgG antibody: 0/5
[2]
  Increased immune reactions to peptide: DTH response: 0/6

## RIIYDRKFL [EIF51]
[1]
  Increased immune reactions to peptide: CTL activity: 0/1
[2]
  Increased immune reactions to peptide: DTH response: 0/1

## RLAEYQAYI [SART3 309]
[1]
  Increased immune reactions to peptide: CTL activity: 0/6
[2]
  Increased immune reactions to peptide: DTH response: 0/9

## SYTRLFLIL [SART2 899]
[1]
  Increased immune reactions to peptide: CTL activity: 0/7
